Values of other authors in patent US20030083286A1, “Bioadhesive compositions and methods for enhanced intestinal drug absorption” (priority 2001, published 2003).
Read-outs that look alike come from different tables or passages of the source. In the oligonucleotide strings, read from the 5' end, every base follows the letter of its sugar. An asterisk marks phosphorothioate; unmarked linkages are phosphodiester. Other units and linkages are bracketed, terminal groups are in braces. A string of capitals states the bases alone. d = 2'-deoxy (DNA)

Columns and labels:
[1] = tested on: ICAM-1; conditions: C8161 human melanoma cells
[2] = tested on: ICAM-1
[3] = tested on: ICAM-1 over HLA-A and HLA-B; conditions: versus HLA-A and HLA-B
[4] = tested on: C8161 cells
[5] = not given; remark: listed apart in the source

Substance | ICAM-1 expression (mRNA levels, northern blot) [1] | ICAM-1 expression ([2]; human epidermal carcinoma cells (A431)) | ICAM-1 expression ([2]; human keratinocytes) | ICAM-1 expression ([2]; human lung carcinoma cells (A549)) | ICAM-1 expression ([2]; human umbilical vein cells) | specificity for target ICAM-1 over other potential nucleic acid targets [3] | enhanced metastatic ability of C8161 cells resulting from TNF-α treatment ([4]; TNF-α treated cells) | metastatic potential of C8161 cells ([4]; in vivo) | anti-inflammatory effects in animal testing (Crohn's disease, rheumatoid arthritis, psoriasis, ulcerative colitis, kidney transplant rejection) | biological activity in animal models of inflammatory disease (in vivo) | activity against Crohn's disease in humans ([5]; humans) | steroid-sparing effect on treated subjects ([5]; humans, five months post-treatment weaned from steroids and in remission) | safety in humans ([5]; in vivo)
ISIS 1939: 2′-oligodeoxynucleotide, phosphorothioate backbone, 5′-CCC-CCA-CCA-CTT-CCC-CTC-TC-3′ (SEQ ID NO:2), targeted to 3′-UTR of human ICAM-1 gene (antisense CCCCCACCACTTCCCCTCTC; DNA, all phosphorothioate, methylation of C not given here) | markedly reduced ICAM-1 expression | – | – | – | – | – | – | – | – | – | – | – | –
ISIS 2302: 2′-deoxyoligonucleotide, phosphorothioate backbone, 5′-GCC-CAA-GCT-GGC-ATC-CGT-CA-3′ (SEQ ID NO:1), targeted to 3′-UTR of human ICAM-1 gene (antisense dG*dC*dC*dC*dA*dA*dG*dC*dT*dG*dG*dC*dA*dT*dC*dC*dG*dT*dC*dA) | markedly reduced ICAM-1 expression | inhibit ICAM-1 expression | inhibit ICAM-1 expression | inhibit ICAM-1 expression | inhibit ICAM-1 expression | demonstrated specificity | eliminated the enhanced metastatic ability | decreased the metastatic potential | strong anti-inflammatory effects | significant biological activity | activity against Crohn's disease | statistically significant steroid-sparing effect | good safety
